Where two headings read alike, the source gives them in different places.
Key:
bacterial spores = conditions: background statement, cited from earlier work
mycobacteria [1] = test: mycobactericidal / tuberculocidal activity (exposure time); assay type: cell-based
[2] = stability of glutaraldehyde concentration in solution; assay type: physicochemical; conditions: composition buffered to about pH 7.3 to 7.9
mycobacteria [3] = conditions: 25 C, background statement; cited from earlier work

## O=Cc1ccccc1C=O [Ortho-phthaladehyde, ortho-phthalaldehyde]
Bacterial spores; temperature not given
  time to kill bacterial spores: about 32 hrs

## CCO [Alcohol]
Mycobacteria [1]; alcohol alone, 5% to 20% by volume
  tuberculocidal activity: not tuberculocidal

## O=CCCCC=O [Glutaraldehyde]
[2]
  time glutaraldehyde is stable during use and re-use: about 14 days
Bacterial spores; 25 C
  time to kill bacterial spores: about 10.0 hrs
Mycobacteria [3]
  time to kill 6 log 10 of mycobacteria: about 45 min
Mycobacteria [1]; 2.0% glutaraldehyde alone, 20° C., exposure time of 10 min
  tuberculocidal activity: nor is 2.0% glutaraldehyde tuberculocidal
